# According to US20210198277A1, “AMINE-SUBSTITUTED ARYL OR HETEROARYL COMPOUNDS” (Epizyme, Inc., priority 2016, published 2021):
# Where two headings read alike, the source gives them in different places.
# Assays:
# human EHMT2 913-1193 = molecular target: T1, human EHMT2 913-1193 (Homo sapiens, UniProt Q96KQ7); test: EHMT2 enzyme assay on histone peptide substrate (EHMT2 PEP); assay type: biochemical; settings: read-out: EHMT2 PEP (IC50 μM)
# T1 construct: recombinant purified human EHMT2 913-1193, Viva; purchased Viva
# T1 sequence (Q96KQ7 913-1193): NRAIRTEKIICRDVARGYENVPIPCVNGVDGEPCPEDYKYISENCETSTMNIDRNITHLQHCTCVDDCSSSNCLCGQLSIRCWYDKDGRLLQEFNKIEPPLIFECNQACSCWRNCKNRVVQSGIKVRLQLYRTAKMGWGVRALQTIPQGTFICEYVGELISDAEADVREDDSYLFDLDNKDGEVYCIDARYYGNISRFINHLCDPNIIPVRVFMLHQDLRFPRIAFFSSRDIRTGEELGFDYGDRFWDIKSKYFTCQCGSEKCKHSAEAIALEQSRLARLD
# Procedure: Recombinant purified human EHMT2 913-1193 (55 μM) synthesized by Viva was used for all experiments. Biotinylated histone peptides were synthesized by Biopeptide and HPLC-purified to >95% purity. Streptavidin Flashplates and seals were purchased from PerkinElmer and 384 Well V-bottom Polypropylene Plates were from Greiner. ^3H-labeled S-adenosylmethionine (^3H-SAM) was obtained from American Radiolabeled Chemicals with a specific activity of 80 Ci/mmol. Unlabeled SAM and S-adenosylhomocysteine (SAH) were obtained from American Radiolabeled Chemicals and Sigma-Aldrich respectively. Flashplates were washed in a Biotek ELx-405 with 0.1% Tween. 384-well Flashplates and 96-well filter binding plates were read on a TopCount microplate reader (PerkinElmer). Compound serial dilutions were performed on a Freedom EVO (Tecan) and spotted into assay plates using a Thermo Scientific Matrix PlateMate (Thermo Scientific). Reagent cocktails were added by Multidrop Combi (Thermo Scientific).
# General Procedure for EHMT2 Enzyme Assay on Histone Peptide Substrate.
# 10-point curves of test compounds were made on a Freedom EVO (Tecan) using serial 3-fold dilutions in DMSO, beginning at 2.5 mM (final top concentration of compound was 50 μM and the DMSO was 2%). A 1 μL aliquot of the inhibitor dilution series was spotted in a polypropylene 384-well V-bottom plate (Greiner) using a Thermo Scientific Matrix PlateMate (Thermo Scientific). […] Compounds were incubated for 30 minutes with 40 μL per well of 0.031 nM EHMT2 (recombinant purified human EHMT2 913-1193, Viva) in 1× assay buffer (20 mM Bicine [pH 7.5], 0.002% Tween 20, 0.005% Bovine Skin Gelatin and 1 mM TCEP). […] Reactions were incubated for 60 minutes at room temperature and quenched with 10 μL per well of 400 μM unlabeled SAM, then transferred to a 384-well streptavidin Flashplate (PerkinElmer) and washed in a Biotek ELx-405 well washer with 0.1% Tween after 60 minutes. 384-well Flashplates were read on a TopCount microplate reader (PerkinElmer).
# EHMT1 = molecular target: T2, EHMT1 (Homo sapiens, UniProt Q9H9B1); test: EHMT1 enzyme assay on peptide substrate (EHMT1 PEP); assay type: biochemical; settings: read-out: EHMT1 PEP (IC50 μM)
# T2 sequence (Q9H9B1 1-1298): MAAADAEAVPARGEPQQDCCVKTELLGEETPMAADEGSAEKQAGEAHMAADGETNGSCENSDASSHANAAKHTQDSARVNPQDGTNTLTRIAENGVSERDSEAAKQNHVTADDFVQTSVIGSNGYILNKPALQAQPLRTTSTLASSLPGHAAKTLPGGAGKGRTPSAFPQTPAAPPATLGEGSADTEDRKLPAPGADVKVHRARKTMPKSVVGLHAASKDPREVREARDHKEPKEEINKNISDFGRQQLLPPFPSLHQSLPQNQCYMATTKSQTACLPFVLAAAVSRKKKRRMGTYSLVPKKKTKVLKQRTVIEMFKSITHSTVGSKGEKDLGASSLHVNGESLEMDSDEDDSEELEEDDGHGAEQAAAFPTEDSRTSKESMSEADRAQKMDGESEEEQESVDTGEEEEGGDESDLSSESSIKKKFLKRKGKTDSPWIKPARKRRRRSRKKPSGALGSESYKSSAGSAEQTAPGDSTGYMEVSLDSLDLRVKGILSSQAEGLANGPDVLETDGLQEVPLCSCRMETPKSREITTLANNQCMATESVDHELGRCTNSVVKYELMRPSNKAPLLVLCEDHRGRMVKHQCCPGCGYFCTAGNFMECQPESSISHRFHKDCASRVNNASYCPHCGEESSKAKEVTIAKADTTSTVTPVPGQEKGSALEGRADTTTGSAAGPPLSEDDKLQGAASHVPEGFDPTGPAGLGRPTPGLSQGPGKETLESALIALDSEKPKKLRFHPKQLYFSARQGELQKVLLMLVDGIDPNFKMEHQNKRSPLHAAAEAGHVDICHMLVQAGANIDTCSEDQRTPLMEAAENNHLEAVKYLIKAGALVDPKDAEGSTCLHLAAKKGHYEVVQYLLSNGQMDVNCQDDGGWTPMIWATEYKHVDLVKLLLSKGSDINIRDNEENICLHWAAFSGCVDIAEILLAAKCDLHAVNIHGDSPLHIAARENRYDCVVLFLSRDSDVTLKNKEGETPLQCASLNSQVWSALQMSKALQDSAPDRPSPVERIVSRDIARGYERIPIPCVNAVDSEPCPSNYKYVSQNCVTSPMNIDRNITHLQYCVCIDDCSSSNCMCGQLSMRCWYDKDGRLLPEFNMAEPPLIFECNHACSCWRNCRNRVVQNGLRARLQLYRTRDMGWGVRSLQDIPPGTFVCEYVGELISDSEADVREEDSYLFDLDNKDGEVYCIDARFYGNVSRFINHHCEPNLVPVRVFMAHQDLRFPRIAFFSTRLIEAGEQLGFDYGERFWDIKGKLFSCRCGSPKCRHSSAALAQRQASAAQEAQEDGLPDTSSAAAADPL
IC50 (human EHMT2 913-1193; Table II) [µM],IC50 (EHMT1; Table II) [µM],IC50 (human EHMT2 913-1193; Table III) [µM],IC50 (EHMT1; Table III) [µM],SMILES
1 to 10,1 to 10,–,–,CCCCNc1nc(C#N)cc(NCC2CCNCC2)n1 [Compound 94]
> 10,> 10,–,–,O=C(NCCNc1ccnc(NCC2CCNCC2)n1)c1ccc2[nH]c(=O)oc2c1 [Compound 95]
1 to 10,1 to 10,–,–,O=C1Cc2cc(C(=O)NCCNc3ccnc(NCC4CCNCC4)n3)ccc2N1 [Compound 96]
1 to 10,1 to 10,–,–,CN1CCC(CNc2nccc(NCCNC(=O)c3ccc4c(c3)CC(=O)N4)n2)CC1 [Compound 97]
> 10,> 10,–,–,CC(=O)N1CCC(CNc2nccc(NCCNC(=O)c3ccc4c(c3)CC(=O)N4)n2)CC1 [Compound 98]
> 10,> 10,–,–,O=C(NCCNc1ccnc(NCC2CCNCC2)n1)c1ccc(N2CCCC2)cc1 [Compound 99]
> 10,> 10,–,–,O=C(NCCNc1ccnc(NCC2CCNCC2)n1)c1cccc(N2CCCC2)c1 [Compound 100]
1 to 10,> 10,–,–,CN1CCC(CNc2nccc(NCCNC(=O)c3ccc4c(c3)CC(=O)N4)n2)CC1 [Compound 101]
> 10,> 10,–,–,COc1ccc(Nc2nccc(N3CCOCC3)n2)cc1OCCCN1CCCC1 [Compound 102]
> 10,> 10,–,–,COc1ccc(Nc2nccc(CNC3CCNCC3)n2)cc1OCCCN1CCCC1 [Compound 104]
1 to 10,> 10,–,–,O=C1Cc2cc(C(=O)NCCNc3nccc(NCC4CCNCC4)n3)ccc2N1 [Compound 105]
1 to 10,0.1 to 1,–,–,COc1ccc(Nc2nccc(CNC3CCN(C(C)=O)CC3)n2)cc1OCCCN1CCCC1 [Compound 106]
> 10,> 10,–,–,COc1ccc(Nc2nccc(CNC3CCOCC3)n2)cc1OCCCN1CCCC1 [Compound 107]
1 to 10,1 to 10,–,–,COc1ccc(Nc2cc(NCC3CCNCC3)ncn2)cc1OCCCN1CCCC1 [Compound 108]
1 to 10,1 to 10,–,–,COc1ccc(Nc2nccc(NCC3CCNCC3)n2)cc1OCCCC1CCCC1 [Compound 109]
1 to 10,1 to 10,–,–,COc1cnc(Nc2cc(CNC3CCOCC3)ccn2)cc1OCCCN1CCCC1 [Compound 110]
> 10,> 10,–,–,COc1ccc(Nc2nccc(CNC3CCN(C)CC3)n2)cc1OCCCN1CCCC1 [Compound 111]
> 10,> 10,–,–,COc1ccc(Nc2nccc(CN(C)C3CCOCC3)n2)cc1OCCCN1CCCC1 [Compound 112]
1 to 10,1 to 10,–,–,COc1ccc(Nc2cccc(NCC3CCNCC3)n2)cc1OCCCN1CCCC1 [Compound 113]
> 10,> 10,–,–,CC(=O)N1CCC(CNc2ccnc(Nc3cccc(NC(=O)CCN4CCCC4)c3)n2)CC1 [Compound 114]
> 10,> 10,–,–,CC(=O)N1CCC(CNc2ccnc(Nc3cccc(NC(=O)c4ccc5c(c4)CC(=O)N5)c3)n2)CC1 [Compound 115]

IC50 (human EHMT2 913-1193; Table II) [µM],IC50 (EHMT1; Table II) [µM],IC50 (human EHMT2 913-1193; Table III) [µM],IC50 (EHMT1; Table III) [µM],SMILES
1 to 10,1 to 10,–,–,COc1ccc(Nc2nccc(NCC3CCNCC3)n2)cc1OCCCN1CCCC1Cc1ccccc1 (stereo not drawn) [Compound 116]
1 to 10,1 to 10,–,–,COc1ccc(Nc2nccc(NCC3CCN(C(C)=O)CC3)n2)cc1OCCCN1CC[C@H](F)C1 [Compound 117]
0.1 to 1,0.1 to 1,–,–,COc1ccc(Nc2nccc(NCC3CCN(C(C)=O)CC3)n2)cc1OCCCN1CC[C@@H](F)C1 [Compound 118]
> 10,> 10,–,–,COc1ccc(Nc2nccc(NCC3CCN(C(C)=O)CC3)n2)cc1OCCCN1CCCC1=O [Compound 119]
1 to 10,0.1 to 1,–,–,COc1ccc(Nc2nccc(NCC3CCN(C(C)=O)CC3)n2)cc1OCC1CCCN1C (stereo not drawn) [Compound 120]
1 to 10,1 to 10,–,–,COc1ccc(Nc2nccc(NCC3CCN(C(C)=O)CC3)n2)cc1NC(=O)CCN1CCCC1 [Compound 121]
> 10,> 10,–,–,CC(=O)N1CCC(CNc2ccnc(Nc3cccc(NC(=O)c4cc(C5CC5)on4)c3)n2)CC1 [Compound 122]
> 10,> 10,–,–,CC(=O)N1CCC(CNc2ccnc(Nc3cccc(NC(=O)c4cn(C5CC5)nn4)c3)n2)CC1 [Compound 123]
1 to 10,1 to 10,–,–,COc1ccc(Nc2nccc(N3CCCC3)n2)cc1OCCCN1CCCC1 [Compound 124]
1 to 10,1 to 10,–,–,COc1ccc(Nc2nccc(N3CCCCC3)n2)cc1OCCCN1CCCC1 [Compound 125]
1 to 10,1 to 10,–,–,COc1ccc(Nc2ccnc(CNC3CCOCC3)n2)cc1OCCCN1CCCC1 [Compound 190]
> 10,> 10,–,–,COc1ccc(Nc2ncc(NC(C)=O)cn2)cc1OCCCN1CCCC1 [Compound 194]
> 10,> 10,–,–,COc1ccc(Nc2nccc(CCN3CCN(C(C)=O)CC3)n2)cc1OCCCN1CCCC1 [Compound 196]
> 10,> 10,–,–,COc1ccc(Nc2cccc3nn(C)cc23)cc1OCCCN1CCCC1 [Compound 197]
> 10,> 10,–,–,COc1ccc(Nc2ccc3ncn(C)c3c2)cc1OCCCN1CCCC1 [Compound 200]
> 10,> 10,–,–,COc1ccc(Nc2cccn3ncnc23)cc1OCCCN1CCCC1 [Compound 201]
> 10,> 10,–,–,COc1ccc(Nc2cc(C)nc3ncnn23)cc1OCCCN1CCCC1 [Compound 202]
1 to 10,1 to 10,–,–,CNc1nc(Nc2ccc(OC)c(OCCCN3CCCC3)c2)ncc1Cl [Compound 211]
1 to 10,1 to 10,–,–,CNc1ccnc(Nc2cccc(OCC(O)CN3CCCC3)c2)n1 (stereo not drawn) [Compound 212]
> 10,> 10,–,–,COc1ccc(Nc2ncc(N)cn2)cc1OCCCN1CCCC1 [Compound 213]
–,–,> 10,> 10,"COc1ccc(Nc2nccc(NCC3COC3)n2)cc1OCCCN1CCCC1 [Compound 256, N^2-(4-methoxy-3-(3-(pyrrolidin-1-yl)propoxy)phenyl)-N^4-(oxetan-3-ylmethyl)pyrimidine-2,4-diamine]"
